Literature values in article PMC12138161, “Structure–activity analysis of imino‐pyrimidinone‐fused pyrrolidines aids the development of dual plasmepsin V and plasmepsin X inhibitors” (The Febs Journal, 2025).
Read-outs that look alike come from different tables or passages of the source.

Tests used:
[1] = tested on: PMX; settings: cited from earlier work
[2] = tested on: PMV; settings: cited from earlier work
[3] = tested on: 3D7 strain of Plasmodium falciparum; settings: blood stage growth, read-out: Pf 3D7 EC50; cited from earlier work
[4] = tested on: PMIX; settings: cited from earlier work
[5] = stated in text with reference to Fig. 1

SMILES	IC50 [1]	IC50 [2]	IC50 [2, 5]	EC50 [3]	IC50 [4]
CC(C)C[C@H](NC(=O)[C@@H](NC(=O)[C@H](CCONC(=N)N)NC(=O)OCc1ccccc1)C(C)C)[C@@H](O)CC(=O)NCCc1ccccc1 [WEHI-842 (1)]	1700 nM	19 nM	< 20 nM	430 nM	> 50000 nM
CC(C)C[C@H](NC(=O)[C@@H](NC(=O)[C@H](CCONC(=N)N)NC(=O)OCc1ccccc1)C1CCCCC1)[C@@H](O)CC(=O)NCCc1ccccc1 [WEHI-601 (2)]	330 nM	5 nM	< 20 nM	90 nM	> 50000 nM
